# Measured values published in patent US8895547B2, “Substituted phenyl-oxathiazine derivatives, method for producing them, drugs containing said compounds and the use thereof” (Sanofi, priority 2011, dated 2014).
# Target: T1, human 11β-HSD1 (Homo sapiens, UniProt P28845)
# T1 construct: host or cells: microsome fraction
# Test: Enzymatic 11beta-HSD1 test (SPA-based detection)
# Format: biochemical
# Details: human 11β-HSD1 microsome fraction, [1,2-3H]-cortisone, NADPH, 37° C. 1 hour
# Method: Enzymatic 11beta-HSD1 test:
# To measure the activity of the compounds, an SPA-based detection method (Solly et al. 2005) was employed. First of all, 20 μl of the human 11β-HSD1 microsome fraction (0.2 μg of protein), prepared in 50 mM HEPES, 0.1% BSA (w/v), were applied to a plate with 384 wells. The test compounds (0.09 μl) were applied to the assay plate in 100% DMSO. The reaction was started by addition of 20 μl of [1,2-^3H]-cortisone (0.1 μCi/[…]) in assay buffer comprising 25 mM HEPES, 100 mM KCl, 5 mM NaCl, 2 mM MgCl2 and 0.25 mM NADPH. The plate was agitated at 37° C. for 1 hour. At the same time, a stop solution comprising 20 mg/ml SPA-PVT beads, 1.6 mg/ml monoclonal cortisol antibody and 0.01 mM SSR110887 (inhibitor from the Biovitrium patent) in 50 mM HEPES, 1 M NaCl and 1 M KCl was stirred at room temperature. To stop the reaction, 25 μl of the stop solution were added to each well. The plate was agitated gently at room temperature for 1 further hour and then centrifuged at 500 gav for 1 minute, in order that the SPA beads could settle out. The plate was then read in a Wallac-1450-Microbeta unit with a standard SPA program (counting time 1 min/well). The comparative compound was glycyrrhetinic acid.
# Protein and radioactive substrate were dispensed with a Biomek FX unit (Beckman Coulter) for handling liquids. The test compounds were added with a Cybi-Well equipped with a 90 nl pin tool (CyBio).
# Lit.: Solly S, Mundt S S, Zokian H J, Juy-Fang Ding G, Hermanowski-Vosatka A, Strulovici B and Zheng W. High-throughput screening of 11β-Hydroxysteroid dehydrogenase type 1 in scintillation proximity format. Assay Drug Dev Technol 2005; 3:377-384.
# T1 sequence (P28845 whole entry): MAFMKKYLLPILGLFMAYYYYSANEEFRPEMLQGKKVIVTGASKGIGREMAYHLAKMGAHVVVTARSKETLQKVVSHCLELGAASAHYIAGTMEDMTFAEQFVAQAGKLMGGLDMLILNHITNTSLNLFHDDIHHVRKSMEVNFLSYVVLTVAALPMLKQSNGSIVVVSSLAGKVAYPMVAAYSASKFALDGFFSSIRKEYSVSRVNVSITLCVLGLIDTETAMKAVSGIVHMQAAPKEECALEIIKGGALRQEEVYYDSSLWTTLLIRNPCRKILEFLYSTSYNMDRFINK
row,IC50,SMILES
1,0.017 µM,"CC1(C)OC(N[C@@H](CCO)c2ccccc2F)=NS(=O)(=O)C1c1ccc(N2CCN(CCC(F)(F)F)CC2)cc1 (mixture of isomers) [Example 131, (S)-3-(6,6-Dimethyl-4,4-dioxo-5-{4-[4-(3,3,3-trifluoropropyl)-piperazin-1-yl]-phenyl}-5,6-dihydro-4H-4lambda6-[1,4,3]oxathiazin-2-ylamino)-3-(2-fluorophenyl)-propan-1-ol]"
2,0.016 µM,"CC1(C)OC(N[C@@H](CCO)c2ccccc2)=NS(=O)(=O)C1c1ccccc1 (single isomer, unassigned) [Example 28]"
3,0.023 µM,"CC1(C)OC(N[C@@H](CCO)c2ccccc2)=NS(=O)(=O)C1c1ccccc1 (single isomer, unassigned) [Example 29]"
4,0.013 µM,"CC1(C)OC(N[C@@H](CCO)c2ccccc2F)=NS(=O)(=O)C1c1ccc(-c2ccccc2)cc1 (single isomer, unassigned) [Example 69]"
5,0.019 µM,"CC1(C)OC(N[C@@H](CCO)c2ccccc2F)=NS(=O)(=O)C1c1ccc(-c2ccccc2)cc1 (single isomer, unassigned) [Example 70]"
6,0.012 µM,"CC1(C)OC(N[C@@H](CCO)c2ccccc2F)=NS(=O)(=O)C1(C)c1cccc(-c2ccccc2)c1 (single isomer, unassigned) [Example 74]"
7,0.044 µM,"CC1(C)OC(N[C@@H](CCO)c2ccccc2F)=NS(=O)(=O)C1(C)c1cccc(-c2ccccc2)c1 (single isomer, unassigned) [Example 75]"
8,0.015 µM,"CC(C)(C)c1ccc(C2C(C)(C)OC(N[C@@H](CCO)c3ccccc3F)=NS2(=O)=O)cc1 (single isomer, unassigned) [Example 84]"
9,0.009 µM,"CC(C)(C)c1ccc(C2C(C)(C)OC(N[C@@H](CCO)c3ccccc3F)=NS2(=O)=O)cc1 (single isomer, unassigned) [Example 85]"
10,0.006 µM,"CC1(C)OC(N[C@@H](CCO)c2ccccc2F)=NS(=O)(=O)C1c1ccc(N2CCN(CCC(F)(F)F)CC2)cc1 (single isomer, unassigned) [Example 182]"
11,0.02 µM,"CC1(C)OC(N[C@@H](CCO)c2ccccc2F)=NS(=O)(=O)C1c1ccc(N2CCN(CCC(F)(F)F)CC2)cc1 (single isomer, unassigned) [Example 183]"
12,0.022 µM,"CC1(C)OC(N[C@@H](CCO)c2ccccc2)=NS(=O)(=O)C1c1cccc(C(F)(F)F)c1 (stereo partly drawn) [Compound 21, (S)-3-[6,6-Dimethyl-4,4-dioxo-5-(3-trifluoromethylphenyl)-5,6-dihydro-4H-4lambda6-[1,4,3]oxathiazin-2-ylamino]-3-phenylpropan-1-ol]"
13,0.017 µM,"CC1(C)OC(N[C@@H](CCO)c2ccccc2)=NS(=O)(=O)C1(C)c1cccc(N2CCN(S(C)(=O)=O)CC2)c1 (stereo partly drawn) [Compound 34, (S)-3-{5-[3-(4-Methanesulfonylpiperazin-1-yl)-phenyl]-5,6,6-trimethyl-4,4-dioxo-5,6-dihydro-4H-4lambda6-[1,4,3]oxathiazin-2-ylamino}-3-phenylpropan-1-ol]"
14,0.015 µM,"C[C@H](NC1=NS(=O)(=O)C(C)(c2cccc(N3CCN(S(C)(=O)=O)CC3)c2)C(C)(C)O1)c1ccccc1F (stereo partly drawn) [Compound 35, [(S)-1-(2-Fluorophenyl)ethyl]-{5-[3-(4-methanesulfonylpiperazin-1-yl)-phenyl]-5,6,6-trimethyl-4,4-dioxo-5,6-dihydro-4H-4lambda6-[1,4,3]oxathiazin-2-yl}amine]"
15,0.015 µM,"C[C@H](NC1=NS(=O)(=O)C(C)(c2cccc(N3CCCC3)c2)C(C)(C)O1)c1ccccc1F (stereo partly drawn) [Compound 36, [(S)-1-(2-Fluorophenyl)ethyl]-[5,6,6-trimethyl-4,4-dioxo-5-(3-pyrrolidin-1-ylphenyl)-5,6-dihydro-4H-4lambda6-[1,4,3]oxathiazin-2-yl]amine]"
16,0.019 µM,"CC1(C)OC(N[C@@H](CCO)c2ccccc2)=NS(=O)(=O)C1(C)c1cccc(N2CCCC2)c1 (stereo partly drawn) [Compound 38, (S)-3-Phenyl-3-[5,6,6-trimethyl-4,4-dioxo-5-(3-pyrrolidin-1-ylphenyl)-5,6-dihydro-4H-4lambda6-[1,4,3]oxathiazin-2-ylamino]propan-1-ol]"
17,0.024 µM,"CC1(C)OC(N[C@@H](CCO)c2ccccc2)=NS(=O)(=O)C1(C)c1cccc(N2CCCC2)c1 (stereo partly drawn) [Compound 39, (S)-3-Phenyl-3-[5,6,6-trimethyl-4,4-dioxo-5-(3-pyrrolidin-1-ylphenyl)-5,6-dihydro-4H-4lambda6-[1,4,3]oxathiazin-2-ylamino]propan-1-ol]"
18,0.015 µM,"CC1(C)OC(N[C@@H](CCO)c2ccccc2)=NS(=O)(=O)C1(C)c1cccc(-c2cncnc2)c1 (stereo partly drawn) [Compound 40, (S)-3-Phenyl-3-[5,6,6-trimethyl-4,4-dioxo-5-(3-pyrimidin-5-ylphenyl)-5,6-dihydro-4H-4lambda6-[1,4,3]oxathiazin-2-ylamino]propan-1-ol]"
19,0.01 µM,"C[C@H](NC1=NS(=O)(=O)C(C)(c2cccc(-c3cncnc3)c2)C(C)(C)O1)c1ccccc1F (stereo partly drawn) [Compound 41, [(S)-1-(2-Fluorophenyl)ethyl]-[5,6,6-trimethyl-4,4-dioxo-5-(3-pyrimidin-5-ylphenyl)-5,6-dihydro-4H-4lambda6-[1,4,3]oxathiazin-2-yl]amine]"
20,0.007 µM,"C[C@H](NC1=NS(=O)(=O)C(C)(c2ccccc2)C(C)(C)O1)c1ccccc1F (stereo partly drawn) [Compound 43, [(S)-1-(2-Fluorophenyl)ethyl]-(5,6,6-trimethyl-4,4-dioxo-5-phenyl-5,6-dihydro-4H-4lambda6-[1,4,3]oxathiazin-2-yl)amine]"
21,0.011 µM,"CC1(C)OC(N[C@@H](CCO)c2ccccc2F)=NS(=O)(=O)C1(C)c1cccc(N2CCCC2)c1 (stereo partly drawn) [Compound 45, (S)-3-(2-Fluorophenyl)-3-[5,6,6-trimethyl-4,4-dioxo-5-(3-pyrrolidin-1-ylphenyl)-5,6-dihydro-4H-4lambda6-[1,4,3]oxathiazin-2-ylamino]propan-1-ol]"
22,0.005 µM,"CC1(C)OC(N[C@@H](CCO)c2ccccc2F)=NS(=O)(=O)C1(C)c1ccccc1 (stereo partly drawn) [Compound 48, (S)-3-(2-Fluorophenyl)-3-(5,6,6-trimethyl-4,4-dioxo-5-phenyl-5,6-dihydro-4H-4lambda6-[1,4,3]oxathiazin-2-ylamino)propan-1-ol]"
23,0.024 µM,"CC1(C)OC(N[C@@H](CCO)c2ccccc2F)=NS(=O)(=O)C1(C)c1cccc(N2CCCC2)c1 (stereo partly drawn) [Compound 49, (S)-3-(2-Fluorophenyl)-3-[5,6,6-trimethyl-4,4-dioxo-5-(3-pyrrolidin-1-ylphenyl)-5,6-dihydro-4H-4lambda6-[1,4,3]oxathiazin-2-ylamino]propan-1-ol]"
24,0.064 µM,"C[C@H](NC1=NS(=O)(=O)C(c2ccc(-c3ccccc3)cc2)C(C)(C)O1)c1ccccc1F (stereo partly drawn) [Compound 52, (5-Biphenyl-4-yl-6,6-dimethyl-4,4-dioxo-5,6-dihydro-4H-4lambda6-[1,4,3]oxathiazin-2-yl)-[(S)-1-(2-fluorophenyl)ethyl]amine]"
25,0.008 µM,"C[C@H](NC1=NS(=O)(=O)C(C)(c2ccccc2)C(C)(C)O1)c1ccccc1F (stereo partly drawn) [Compound 56, [(S)-1-(2-Fluorophenyl)ethyl]-(5,6,6-trimethyl-4,4-dioxo-5-phenyl-5,6-dihydro-4H-4lambda6-[1,4,3]oxathiazin-2-yl)amine, stereomer 1]"
26,0.007 µM,"C[C@H](NC1=NS(=O)(=O)C(C)(c2ccccc2)C(C)(C)O1)c1ccccc1F (stereo partly drawn) [Compound 57, [(S)-1-(2-Fluorophenyl)ethyl]-(5,6,6-trimethyl-4,4-dioxo-5-phenyl-5,6-dihydro-4H-4lambda6-[1,4,3]oxathiazin-2-yl)amine, stereomer 2]"
27,0.021 µM,"CC(C)(C)c1ccc(C2C(C)(C)OC(N[C@@H](CCO)c3ccccc3F)=NS2(=O)=O)cc1 (stereo partly drawn) [Compound 58, (S)-3-[5-(4-tert-Butylphenyl)-6,6-dimethyl-4,4-dioxo-5,6-dihydro-4H-4lambda6-[1,4,3]oxathiazin-2-ylamino]-3-(2-fluorophenyl)propan-1-ol]"
28,0.055 µM,"C[C@H](NC1=NS(=O)(=O)C(c2ccc(C(C)(C)C)cc2)C(C)(C)O1)c1ccccc1F (stereo partly drawn) [Compound 59, [5-(4-tert-Butylphenyl)-6,6-dimethyl-4,4-dioxo-5,6-dihydro-4H-4lambda6-[1,4,3]oxathiazin-2-yl]-[(S)-1-(2-fluorophenyl)ethyl]amine]"
29,0.043 µM,"CC(C)(C)c1ccc(C2C(C)(C)OC(N[C@@H](CCO)c3ccccc3)=NS2(=O)=O)cc1 (stereo partly drawn) [Compound 60, (S)-3-[5-(4-tert-Butylphenyl)-6,6-dimethyl-4,4-dioxo-5,6-dihydro-4H-4lambda6-[1,4,3]oxathiazin-2-ylamino]-3-phenylpropan-1-ol]"
30,0.014 µM,"CC(C)(C)c1ccc(C2(C)C(C)(C)OC(N[C@@H](CCO)c3ccccc3F)=NS2(=O)=O)cc1 (stereo partly drawn) [Compound 61, (S)-3-[5-(4-tert-Butylphenyl)-5,6,6-trimethyl-4,4-dioxo-5,6-dihydro-4H-4lambda6-[1,4,3]oxathiazin-2-ylamino]-3-(2-fluorophenyl)propan-1-ol]"
